From PubChem BioAssay (NCI)
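In this assay, cells in 96-well plates receive the compound at five concentrations for 48 hours. Endpoints are linearly interpolated between the surrounding concentrations. The concentration for full growth arrest is given as TGI.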

How the values were obtained:
Assay in all cases: inhibition of tumour cell growth, NCI panel, 48 h
UACC-257 melanoma = test system: UACC-257 melanoma
ACHN renal = test system: ACHN renal
NCI-H460 lung = test system: NCI-H460 lung
MOLT-4 leukemia = test system: MOLT-4 leukemia
UO-31 renal = test system: UO-31 renal
A549 NSCLC = test system: A549 NSCLC
CCRF-CEM leukemia = test system: CCRF-CEM leukemia
COLO 205 colon = test system: COLO 205 colon
SF-295 CNS = test system: SF-295 CNS
SR leukemia = test system: SR leukemia
KM20L2 colon = test system: KM20L2 colon
SK-MEL-28 melanoma = test system: SK-MEL-28 melanoma
SN12C renal = test system: SN12C renal
NCI-H226 lung = test system: NCI-H226 lung
SF-268 CNS = test system: SF-268 CNS
SF-539 CNS = test system: SF-539 CNS
RPMI-8226 leukemia = test system: RPMI-8226 leukemia
SNB-78 CNS = test system: SNB-78 CNS
OVCAR-8 ovarian = test system: OVCAR-8 ovarian
HCC-2998 colon = test system: HCC-2998 colon
SNB-19 CNS = test system: SNB-19 CNS
HCT-116 colon = test system: HCT-116 colon
OVCAR-3 ovarian = test system: OVCAR-3 ovarian
SNB-75 CNS = test system: SNB-75 CNS
HOP-92 NSCLC = test system: HOP-92 NSCLC
XF 498 CNS = test system: XF 498 CNS
786-0 renal = test system: 786-0 renal
EKVX NSCLC = test system: EKVX NSCLC
DMS 273 small cell lung = test system: DMS 273 small cell lung
HL-60(TB) leukemia = test system: HL-60(TB) leukemia
M19-MEL melanoma = test system: M19-MEL melanoma
DLD-1 colon = test system: DLD-1 colon
HOP-62 NSCLC = test system: HOP-62 NSCLC
SK-MEL-2 melanoma = test system: SK-MEL-2 melanoma
UACC-62 melanoma = test system: UACC-62 melanoma
HT29 colon = test system: HT29 colon
HCT-15 colon = test system: HCT-15 colon
OVCAR-5 ovarian = test system: OVCAR-5 ovarian
TK-10 renal = test system: TK-10 renal
RXF 393 renal = test system: RXF 393 renal
U251 CNS = test system: U251 CNS
SW-620 colon = test system: SW-620 colon
SK-OV-3 ovarian = test system: SK-OV-3 ovarian
MALME-3M melanoma = test system: MALME-3M melanoma
RXF-631 renal = test system: RXF-631 renal
LXFL 529 NSCLC = test system: LXFL 529 NSCLC
LOX IMVI melanoma = test system: LOX IMVI melanoma
HOP-18 NSCLC = test system: HOP-18 NSCLC
NCI-H23 lung = test system: NCI-H23 lung
SK-MEL-5 melanoma = test system: SK-MEL-5 melanoma
KM12 colon = test system: KM12 colon
DMS 114 small cell lung = test system: DMS 114 small cell lung
IGROV1 ovarian = test system: IGROV1 ovarian
K-562 leukemia = test system: K-562 leukemia
M14 melanoma = test system: M14 melanoma
OVCAR-4 ovarian = test system: OVCAR-4 ovarian
NCI-H522 lung = test system: NCI-H522 lung
CAKI-1 renal = test system: CAKI-1 renal
A498 renal = test system: A498 renal

COc1cc(Nc2cnc3cc(C(F)(F)F)ccc3n2)cc(OC)c1OC gave a TGI (UACC-257 melanoma) greater than 100 µM, a TGI (ACHN renal) greater than 100 µM and a TGI (NCI-H460 lung) greater than 100 µM. The TGI (MOLT-4 leukemia) was greater than 100 µM, the TGI (UO-31 renal) was greater than 100 µM and the TGI (A549 NSCLC) was greater than 100 µM. For the same compound, the TGI (CCRF-CEM leukemia) was greater than 100 µM, the TGI (COLO 205 colon) was greater than 100 µM and the TGI (SF-295 CNS) was greater than 100 µM. For the same compound, the TGI (SR leukemia) was greater than 100 µM, the TGI (KM20L2 colon) was greater than 100 µM and the TGI (SK-MEL-28 melanoma) was greater than 100 µM. For the same compound, the TGI (SN12C renal) was greater than 100 µM, the TGI (NCI-H226 lung) was greater than 100 µM and the TGI (SF-268 CNS) was greater than 100 µM. For the same compound, the TGI (SF-539 CNS) was greater than 100 µM, the TGI (RPMI-8226 leukemia) was greater than 100 µM and the TGI (SNB-78 CNS) was greater than 100 µM. For the same compound, the TGI (OVCAR-8 ovarian) was greater than 100 µM, the TGI (HCC-2998 colon) was greater than 100 µM and the TGI (SNB-19 CNS) was greater than 100 µM. For the same compound, the TGI (HCT-116 colon) was greater than 100 µM, the TGI (OVCAR-3 ovarian) was greater than 100 µM and the TGI (SNB-75 CNS) was greater than 100 µM. The TGI (HOP-92 NSCLC) was greater than 100 µM, the TGI (XF 498 CNS) was greater than 100 µM and the TGI (786-0 renal) was greater than 100 µM. The TGI (EKVX NSCLC) was greater than 100 µM, the TGI (DMS 273 small cell lung) was greater than 100 µM and the TGI (HL-60(TB) leukemia) was greater than 100 µM. The TGI (M19-MEL melanoma) was greater than 100 µM, the TGI (DLD-1 colon) was greater than 100 µM and the TGI (HOP-62 NSCLC) was greater than 100 µM. It also gave a TGI (SK-MEL-2 melanoma) greater than 100 µM, a TGI (UACC-62 melanoma) greater than 100 µM and a TGI (HT29 colon) greater than 100 µM. It also gave a TGI (HCT-15 colon) greater than 100 µM, a TGI (OVCAR-5 ovarian) greater than 100 µM and a TGI (TK-10 renal) greater than 100 µM. The TGI (RXF 393 renal) was greater than 100 µM, the TGI (U251 CNS) was greater than 100 µM and the TGI (SW-620 colon) was greater than 100 µM. For the same compound, the TGI (SK-OV-3 ovarian) was greater than 100 µM, the TGI (MALME-3M melanoma) was greater than 100 µM and the TGI (RXF-631 renal) was greater than 100 µM. The TGI (LXFL 529 NSCLC) was greater than 100 µM, the TGI (LOX IMVI melanoma) was greater than 100 µM and the TGI (HOP-18 NSCLC) was greater than 100 µM. It also gave a TGI (NCI-H23 lung) greater than 100 µM.
For NC(=S)/N=C/c1c(O)c2ccccc2oc1=O, the TGI (UACC-257 melanoma) was greater than 100 µM, the TGI (ACHN renal) was greater than 100 µM and the TGI (NCI-H460 lung) was greater than 100 µM. The TGI (MOLT-4 leukemia) was greater than 100 µM, the TGI (UO-31 renal) was greater than 100 µM and the TGI (A549 NSCLC) was greater than 100 µM. For the same compound, the TGI (CCRF-CEM leukemia) was greater than 100 µM, the TGI (COLO 205 colon) was greater than 100 µM and the TGI (SK-MEL-5 melanoma) was greater than 100 µM. For the same compound, the TGI (SF-295 CNS) was greater than 100 µM, the TGI (KM20L2 colon) was greater than 100 µM and the TGI (SK-MEL-28 melanoma) was greater than 100 µM. For the same compound, the TGI (SN12C renal) was greater than 100 µM, the TGI (NCI-H226 lung) was greater than 100 µM and the TGI (SF-268 CNS) was greater than 100 µM. It also gave a TGI (KM12 colon) greater than 100 µM, a TGI (DMS 114 small cell lung) greater than 100 µM and a TGI (SF-539 CNS) greater than 100 µM. It also gave a TGI (RPMI-8226 leukemia) greater than 100 µM, a TGI (SNB-78 CNS) greater than 100 µM and a TGI (OVCAR-8 ovarian) greater than 100 µM. It also gave a TGI (HCC-2998 colon) greater than 100 µM, a TGI (SNB-19 CNS) greater than 100 µM and a TGI (HCT-116 colon) greater than 100 µM. For the same compound, the TGI (OVCAR-3 ovarian) was greater than 100 µM, the TGI (SNB-75 CNS) was 87 µM and the TGI (HOP-92 NSCLC) was greater than 100 µM. The TGI (XF 498 CNS) was greater than 100 µM, the TGI (IGROV1 ovarian) was greater than 100 µM and the TGI (786-0 renal) was greater than 100 µM. For the same compound, the TGI (EKVX NSCLC) was greater than 100 µM, the TGI (DMS 273 small cell lung) was greater than 100 µM and the TGI (HL-60(TB) leukemia) was greater than 100 µM. The TGI (M19-MEL melanoma) was greater than 100 µM, the TGI (DLD-1 colon) was greater than 100 µM and the TGI (SK-MEL-2 melanoma) was 97.3 µM. It also gave a TGI (UACC-62 melanoma) greater than 100 µM, a TGI (HT29 colon) greater than 100 µM and a TGI (K-562 leukemia) greater than 100 µM. The TGI (M14 melanoma) was greater than 100 µM, the TGI (HCT-15 colon) was greater than 100 µM and the TGI (OVCAR-4 ovarian) was greater than 100 µM. For the same compound, the TGI (OVCAR-5 ovarian) was greater than 100 µM, the TGI (TK-10 renal) was greater than 100 µM and the TGI (NCI-H522 lung) was greater than 100 µM. For the same compound, the TGI (CAKI-1 renal) was 77.9 µM, the TGI (RXF 393 renal) was 86.4 µM and the TGI (U251 CNS) was greater than 100 µM. It also gave a TGI (A498 renal) greater than 100 µM, a TGI (SW-620 colon) greater than 100 µM and a TGI (SK-OV-3 ovarian) greater than 100 µM. It also gave a TGI (MALME-3M melanoma) of 99.4 µM, a TGI (LXFL 529 NSCLC) greater than 100 µM and a TGI (LOX IMVI melanoma) greater than 100 µM. The TGI (HOP-18 NSCLC) was greater than 100 µM and the TGI (NCI-H23 lung) was greater than 100 µM.
